From publication PMC6208284 (Phytotherapy Research, 2018)

Key:
[1] = tested on: Leishmania tarentolae promastigotes (LtP); assay: Superoxide radical detection in LtP by CMH/ESR; type: cell-based; settings: for CM● formation (superoxide radicals) in LtP: 100 μM compound, immediate, with DFO and DTPA
Procedure: Detection of superoxide radicals was performed using CMH as reaction partner and measuring the formed stable nitroxyl radicals by electron spin resonance (ESR) spectroscopy. Measurements were performed in PBS (136 mM NaCl, 1.15 mM KH2PO4, 14 mM Na2HPO4, and 2.7 mM KCl, pH 7.4) containing 15 mM glucose, 400 μM CMH, and 100 μM DFO (desferrioxamine mesylate) and 25 μM DTPA. Usually, these assays are performed in the presence of iron chelators (DFO and DTPA) to prevent CMH interaction with free Fe^3+ leading to CM^● unrelated to superoxide radicals. Before the measurements, LtP suspensions were washed twice with PBS to remove the medium. Typical experiments contained 5 × 10^8 LtP cells/ml. Stock solutions of EO compounds dissolved in DMSO were added. The influence of Asc (6–700 μM) on the CMH oxidation rate by LtP was assessed immediately and after prolonged incubation time (1 hr between Asc and CMH addition). The influence of iron‐dependent Asc activation in LtP on CMH oxidation was studied in the absence of iron chelators DFO and DTPA. Prior to the ESR measurement, 400 μM CMH was added. Afterwards, 17 μl of suspension was aspirated in gas‐permeable Teflon tubes (ID 0.7 mm). This capillary tube was placed in the resonator of the ESR instrument (Bruker EMX, split ring MD5, Germany), and 10 sequential measurements were performed. The following instrument settings were used: microwave frequency 9.682 GHz, modulation frequency 100 kHz, modulation amplitude 1 G, time constant 0.082 s, center field 3,446 G, scan rate 71 G/min, sweep width 100 G, scan time 84 s, and attenuation CMH: 7.96 × 10^3. From the ESR spectra, the middle peak intensity was retrieved, and concentrations of oxidized CMH were obtained by comparison with a standard curve prepared from 3‐carboxy‐proxyl solutions with defined concentrations. Four replicate measurements were performed for each condition.

[2] = tested on: Leishmania tarentolae promastigotes (LtP); assay: Low molecular thiols in LtP, CMFDA method; type: cell-based; settings: 5 hr incubation at 26 °C, PBS/glucose
Procedure: LtP were centrifuged twice (1,800 g, 10 min, 20 °C), the cell pellets were resuspended in PBS/glucose (15 mM), and the cell number was adjusted to 1 × 10^7/ml. Aliquots (250 μl) were added to 96‐well plates (black, nontreated plates), along with compound stocks (keeping a maximum of 2% DMSO). Following a 5‐hr incubation at 26 °C, plates were centrifuged (1,800 g, 10 min, 20 °C), and 200 μl of supernatant was removed. To the remaining cell suspension, 100 μl of CMFDA in PBS was added giving a final concentration of 5 μM. After gentle shaking, the cells were incubated for 15 min at 37 °C in the dark. The fluorescence of the methyl fluorescein (MF)‐thiol adduct (Sarkar, Mandal, Singh, Sundar, & Chatterjee, 2009) was measured at 15, 30, 45, and 60 min at 485 nm (excitation wavelength) and 530 nm (emission wavelength) using a plate reader (PerkinElmer Enspire, Germany). The OD600 nm was determined for cell count, and the measured fluorescence intensity was normalized to the cell number. Three replicate measurements were performed for each condition.

[3] = set-up: method as in Rappoport & Frankel, 1967; settings: ref Rappoport & Frankel, 1967; cited from earlier work
[4] = tested on: Leishmania amazonensis promastigotes (LaP); set-up: method as in Monzote, Garcia, et al., 2014; settings: after 72 hr of incubation; ref Monzote, Garcia, et al., 2014; cited from earlier work
[5] = tested on: Leishmania tarentolae promastigotes (LtP); assay: Mitochondrial coupling (RCR) in LtP, Clark-type electrode, short- and long-term incubation; type: cell-based; settings: 200 μM
Procedure: Direct inhibitors of mitochondrial ETC instantaneously influence mitochondrial oxygen consumption. To assay the effect of EO compounds on oxygen consumption of LtP, a Clark‐type oxygen electrode (Hansatech, Germany) and software MCREC were used. LtP at approximately 10^8 cells/ml in YEM (25 °C) were added and treated with increasing concentrations of EO compounds between 10 and 200 μM and for EO 5.6–89.6 μg/ml. Each concentration was assayed in quadruplicates, and the results were expressed as percentage of oxygen consumption in comparison with the untreated control LtP. The highest concentration of the vehicle (1% DMSO) caused only 2% inhibition. The uncoupling effect in short‐term and long‐term (0, 6, and 24 hr) incubations with Asc (200 μM) was studied in Oligo‐inhibited (5 μM) and uncoupler‐stimulated (0.5 μM CCCP) LtP in Schneider's medium supplemented with 6 μM hemin. Four replicates were performed for each concentration.

With `C=C1CC[C@H]2O[C@]2(C)CC[C@@H]2[C@@H]1CC2(C)C` [Caryo, caryophyllene oxide] the “CM● formation (superoxide radicals) in LtP” value [1] was “only slightly increased” and the “Low molecular thiol status (rate of thiol‐MF adduct formation)” value [2] was “decrease”.
For `Cc1ccc(C(C)C)cc1O` [Car, carvacrol], the pKa value [3] is listed as “around 10”.
For `CC(C)C12C=CC(C)(CC1)OO2` (centres unmarked) [Asc, ascaridole], the “Membrane potential of LaP (JC‐1)” value [4] is given as “decrease”, the “Effect on mitochondrial coupling in LtP” value ([5]; immediately after addition) is given as “only little effects” and the “RCR with respect to vehicle‐treated LtP” value ([5]; prolonged incubation (6 and 24 hr)) is given as “declined”. For the same compound, the “CM● formation (superoxide radicals) in LtP” value [1] was “only slightly increased” and the “CMH oxidation (superoxide radical formation) triggered in LtP” value ([1]; Asc 6–700 μM, 0 hr vs 1 hr incubation, with/without iron chelators) was “increasingly effective upon prolonged incubation and in the absence of iron chelators”.
